# Measurements published in ChEMBL document CHEMBL4364299, “Discovery of a Potent Kelch-Like ECH-Associated Protein 1-Nuclear Factor Erythroid 2-Related Factor 2 (Keap1-Nrf2) Protein-Protein Interaction Inhibitor with Natural Proline Structure as a Cytoprotective Agent against Acetaminophen-Induced Hepatotoxicity” (J Med Chem, 2019).
# Activity calls are given as the source filed them. The rule behind the calls is not given here.
# How the values were obtained:
# [1] = target: T1, Nuclear factor erythroid 2-related factor 2 (Homo sapiens) (UniProt Q16236); assay: Activation of Nrf2 in human L02 cells assessed as increase in NEFL2L expression measured after 12 hrs by Western blot analysis; assay type: cell-based
# T1 sequence (whole entry): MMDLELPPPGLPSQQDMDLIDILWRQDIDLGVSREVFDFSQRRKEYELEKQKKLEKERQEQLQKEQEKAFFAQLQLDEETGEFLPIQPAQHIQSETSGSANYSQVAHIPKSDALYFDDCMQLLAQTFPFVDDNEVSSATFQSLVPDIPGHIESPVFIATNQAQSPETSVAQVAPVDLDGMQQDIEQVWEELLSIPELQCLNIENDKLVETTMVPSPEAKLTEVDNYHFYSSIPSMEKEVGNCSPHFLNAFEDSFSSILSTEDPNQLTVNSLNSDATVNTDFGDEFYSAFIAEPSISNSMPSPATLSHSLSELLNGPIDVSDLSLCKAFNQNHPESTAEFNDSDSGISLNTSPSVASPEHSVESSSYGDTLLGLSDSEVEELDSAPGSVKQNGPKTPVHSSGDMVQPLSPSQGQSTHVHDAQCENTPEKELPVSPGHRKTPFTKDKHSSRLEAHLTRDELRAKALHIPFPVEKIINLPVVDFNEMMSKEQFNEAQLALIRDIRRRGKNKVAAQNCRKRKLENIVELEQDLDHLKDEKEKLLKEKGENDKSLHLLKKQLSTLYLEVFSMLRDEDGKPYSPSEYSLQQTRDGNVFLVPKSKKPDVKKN
# L02 [2] = assay: Upregulation of HO-1 expression in human L02 cells harboring Nrf2 siRNA at 10 uM measured after 10 hrs by Western blot analysis; assay type: functional, cell-based
# Mus musculus [3] = assay: Protection against APAP-induced hepatotoxicity in C57BL/6 mouse assessed as decrease in reactive oxygen species level in liver at 10 to 40 mg/kg, ip treated 2 hrs prior to 22 hrs starvation followed by APAP challenge and measured after 6 hrs; assay type: functional, organism-based
# [4] = target: T1, Nuclear factor erythroid 2-related factor 2 (Homo sapiens); assay: Activation of Nrf2 in human L02 cells assessed as increase in NQO-1 mRNA expression measured after 12 hrs by trizol reagent based qRT-PCR analysis; assay type: cell-based
# L02 [5] = assay: Cytoprotective activity against APAP-induced oxidative stress in human L02 cells assessed as decrease in ALP level at 5 to 10 uM preincubated for 12 hrs followed by APAP stimulation and measured after 24 hrs; assay type: functional, cell-based
# Mus musculus [6] = assay: Protection against APAP-induced hepatotoxicity in C57BL/6 mouse assessed as decrease in GCLM expression in liver at 10 to 40 mg/kg, ip treated 2 hrs prior to 22 hrs starvation followed by APAP challenge and measured after 6 hrs by Dako/Mayer's hematoxylin staining-based immunohistochemical analysis; assay type: functional, organism-based
# L02 [7] = conditions: Homo sapiens, 5 to 10 uM
# Description: Cytoprotective activity against APAP-induced hepatotoxicity in human L02 cells assessed as inhibition of IL1beta production at 5 to 10 uM preincubated for 12 hrs followed by APAP stimulation and measured after 24 hrs by ELISA
# [8] = target: T1, Nuclear factor erythroid 2-related factor 2 (Homo sapiens); assay: Activation of Nrf2 (unknown origin) stably transfected in human HepG2-ARE-C8 cells assessed as increase in ARE-driven luciferase activity by luciferase reporter gene assay; assay type: cell-based
# [9] = target: T1, Nuclear factor erythroid 2-related factor 2 (Homo sapiens); assay: Activation of Nrf2 in human L02 cells assessed as increase in NQO-1 expression at 10 uM measured after 4 to 72 hrs hrs by Western blot analysis; assay type: cell-based
# Mus musculus [10] = assay: Protection against APAP-induced hepatotoxicity in C57BL/6 mouse assessed as decrease in disease score at 10 to 40 mg/kg, ip treated 2 hrs prior to 22 hrs starvation followed by APAP challenge and measured after 6 hrs by H and E staining-based light microscopic analysis; assay type: functional, organism-based
# [11] = target: T1, Nuclear factor erythroid 2-related factor 2 (Homo sapiens); assay: Activation of Nrf2 in human L02 cells assessed as increase in NQO-1 mRNA expression at 10 uM measured after 8 to 24 hrs by trizol reagent based qRT-PCR analysis; assay type: cell-based
# [12] = target: T1, Nuclear factor erythroid 2-related factor 2 (Homo sapiens); assay: Activation of Nrf2 in human L02 cells harboring control siRNA assessed as increase in NEFL2L mRNA expression at 10 uM measured after 10 hrs by trizol reagent based qRT-PCR analysis; assay type: cell-based
# [13] = target: T1, Nuclear factor erythroid 2-related factor 2 (Homo sapiens); assay: Activation of Nrf2 in human L02 cells assessed as increase in GCLM expression measured after 12 hrs by Western blot analysis; assay type: cell-based
# L02 [14] = conditions: Homo sapiens, 5 to 10 uM; remark: listed apart in the source
# Description: Cytoprotective activity against APAP-induced hepatotoxicity in human L02 cells assessed as inhibition of TNFalpha production at 5 to 10 uM preincubated for 12 hrs followed by APAP stimulation and measured after 24 hrs by ELISA
# [15] = target: T1, Nuclear factor erythroid 2-related factor 2 (Homo sapiens); assay: Activation of Nrf2 in human L02 cells assessed as increase in GCLM expression at 10 uM measured after 4 to 72 hrs hrs by Western blot analysis; assay type: cell-based
# Mus musculus [16] = assay: Protection against APAP-induced hepatotoxicity in C57BL/6 mouse assessed as decrease in liver lymphocytes infiltration at 10 to 40 mg/kg, ip treated 2 hrs prior to 22 hrs starvation followed by APAP challenge and measured after 6 hrs by H and E staining-based light microscopic analysis; assay type: functional, organism-based
# [17] = target: T1, Nuclear factor erythroid 2-related factor 2 (Homo sapiens); assay: Activation of Nrf2 in human L02 cells assessed as increase in NEFL2L mRNA expression at 10 uM measured after 8 to 24 hrs by trizol reagent based qRT-PCR analysis; assay type: cell-based
# L02 [18] = assay: cells; conditions: Homo sapiens, L02, read-out: Activity
# Description: Cytoprotective activity against APAP-induced apoptosis in human L02 cells assessed as viable cells at 10 uM preincubated for 12 hrs followed by APAP addition and measured after 12 hrs by FITC-Annexin V/propidium iodide staining based flow cytometry (Rvb = 50.6%)
# [19] = target: T1, Nuclear factor erythroid 2-related factor 2 (Homo sapiens); assay: Activation of Nrf2 in human L02 cells assessed as increase in NEFL2L mRNA expression measured after 12 hrs by trizol reagent based qRT-PCR analysis; assay type: cell-based
# L02 [20] = assay: Cytoprotective activity against APAP-induced oxidative stress in human L02 cells assessed as decrease in ALT level at 5 to 10 uM preincubated for 12 hrs followed by APAP stimulation and measured after 24 hrs; assay type: functional, cell-based
# L02 [21] = assay: Upregulation of NEFL2L mRNA expression in human L02 cells harboring Nrf2 siRNA at 10 uM measured after 10 hrs by trizol reagent based qRT-PCR analysis; assay type: functional, cell-based
# [22] = target: T1, Nuclear factor erythroid 2-related factor 2 (Homo sapiens); assay: Activation of Nrf2 in human L02 cells assessed as increase in HO-1 expression measured after 12 hrs by Western blot analysis; assay type: cell-based
# Mus musculus [23] = assay: Protection against APAP-induced hepatotoxicity in C57BL/6 mouse assessed as decrease in NQO1 expression in liver at 10 to 40 mg/kg, ip treated 2 hrs prior to 22 hrs starvation followed by APAP challenge and measured after 6 hrs by Dako/Mayer's hematoxylin staining-based immunohistochemical analysis; assay type: functional, organism-based
# [24] = target: T1, Nuclear factor erythroid 2-related factor 2 (Homo sapiens); assay: Activation of Nrf2 in human L02 cells assessed as increase in GCLM mRNA expression measured after 12 hrs by trizol reagent based qRT-PCR analysis; assay type: cell-based
# L02 [25] = assay: Cytoprotective activity against APAP-induced hepatotoxicity in human L02 cells assessed as increase in cell viability at 1 to 20 uM preincubated for 12 hrs followed by APAP addition and measured after 24 hrs by MTT assay; assay type: functional, cell-based
# Mus musculus [26] = assay: Protection against APAP-induced hepatotoxicity in C57BL/6 mouse assessed as decrease in ALT level at 10 mg/kg, ip treated 2 hrs prior to 22 hrs starvation followed by APAP challenge and measured after 6 hrs; assay type: functional, organism-based
# [27] = target: T1, Nuclear factor erythroid 2-related factor 2 (Homo sapiens); assay: Activation of Nrf2 in human L02 cells harboring control siRNA assessed as increase in HO-1 mRNA expression at 10 uM measured after 10 hrs by trizol reagent based qRT-PCR analysis; assay type: cell-based
structure (smiles),measurement,setting,value
COc1ccc(S(=O)(=O)N(CC(=O)O)c2ccc(N3CCC[C@H]3C(=O)O)c3ccccc23)cc1,Activity,[1],Dose-dependent effect
same,Activity,L02 [2],inactive
same,Activity,Mus musculus [3],Active
same,Activity,[4],Dose-dependent effect
same,Activity,L02 [5],Active
same,Activity,Mus musculus [6],Active
same,inhibition,L02 [7],Active
same,Activity,[8],Dose-dependent effect
same,Activity,[9],Active
same,Activity,Mus musculus [10],Active
same,Activity,[11],Active
same,Activity,[12],Active
same,Activity,[13],Dose-dependent effect
same,inhibition,L02 [14],Active
same,Activity,[15],Active
same,Activity,Mus musculus [16],Active
same,Activity,[17],Active
same,viability at 10 µM,L02 [18],76%
same,Activity,[19],Dose-dependent effect
same,Activity,L02 [20],Active
same,Activity,L02 [21],inactive
same,Activity,[22],Dose-dependent effect
same,Activity,Mus musculus [23],Active
same,Activity,[24],Dose-dependent effect
same,Activity,L02 [25],Active
same,Activity,Mus musculus [26],Active
same,Activity,[27],Active
